The target of one experiment is T1, Olfr691 (Mus musculus, UniProt Q8VGW5).
T1 construct: The other full-length ORs were amplified using primers which added appropriate restriction sites; expressed in transfected cells; host or cells: HEK293T
T1 sequence (Q8VGW5 1-322): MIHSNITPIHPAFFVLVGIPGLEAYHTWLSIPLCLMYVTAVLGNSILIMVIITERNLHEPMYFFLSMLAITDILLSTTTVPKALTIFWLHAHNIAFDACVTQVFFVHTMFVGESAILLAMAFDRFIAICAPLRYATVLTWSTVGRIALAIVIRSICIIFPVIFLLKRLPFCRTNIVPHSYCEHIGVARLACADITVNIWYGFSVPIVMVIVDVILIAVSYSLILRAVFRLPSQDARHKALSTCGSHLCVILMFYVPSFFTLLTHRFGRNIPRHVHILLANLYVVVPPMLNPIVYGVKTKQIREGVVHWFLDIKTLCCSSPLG
As to the kind of experiment: Luciferase reporter assay (CRE Firefly:Renilla), Olfr691 constructs. The experiment is classed as cell-based. The settings on record: 0.1-5 mM isovaleric acid. On the procedure: (§1) Luciferase Assay. The luciferase assay was performed as previously described. Briefly, ORs were transfected into HEK293T cells along with constructs encoding for CREB-dependent luciferase (Firefly) and a constitutively expressed luciferase (Renilla). OR activation leads to a rise in cAMP which drives an increase in Firefly luciferase expression. Firefly activity is normalized to the activity of the Renilla luciferase to control for variation in cell number and transfection efficiency. Data were collected using a FLUOstar Omega automated platereader (BMG LabTech, Cary, N.C.). For some experiments, RTP1S was also transfected.
Statistical Analysis. One-way ANOVA analysis followed by the Student-Newman Keuls test was performed on the luciferase reporter assay to compare the doses of isovaleric acid (0.1-5 mM) or eugenol (100-300 μM) to the non-treated control (0 μM). As each condition was performed in triplicate, the analyses were done with an n=3, and P values≦0.05 were deemed significant. One-way ANOVE followed by Student-Newman Keuls was also used to analyze the surface expression data in FIG. 7. A Student T-Test was performed on the ELISA to assess the significance of the increased protein expression (Control construct vs. Lucy construct for each OR, n=4 for each condition). P values≦0.05 were deemed significant. In both the luciferase reporter assay and the ELISA, the error bars represent the SEM.
To determine whether Lucy-tagged ORs expressed on the cell surface can still respond to their ligands in the absence of RTP1S, and to ensure that the Lucy tag is not altering ligand binding or detection, we assayed for a functional ligand response using a luciferase reporter assay. In this assay, OR-ligand binding leads to an increase in cAMP which drives the expression of a CRE luciferase. An increase in the Firefly (CRE-dependent luciferase): Renilla (constitutively activated luciferase) ratio indicates OR activation. Previously, it was determined that Olfr691 responds to isovaleric acid. […]

The target in the next experiment is T2, mOREG (Mus musculus, UniProt Q920P2).
T2 construct: The mOR-EG full-length construct, containing N-terminal Flag/Rho tags; expressed in transfected cells; host or cells: HEK293T
T2 sequence (Q920P2 1-313): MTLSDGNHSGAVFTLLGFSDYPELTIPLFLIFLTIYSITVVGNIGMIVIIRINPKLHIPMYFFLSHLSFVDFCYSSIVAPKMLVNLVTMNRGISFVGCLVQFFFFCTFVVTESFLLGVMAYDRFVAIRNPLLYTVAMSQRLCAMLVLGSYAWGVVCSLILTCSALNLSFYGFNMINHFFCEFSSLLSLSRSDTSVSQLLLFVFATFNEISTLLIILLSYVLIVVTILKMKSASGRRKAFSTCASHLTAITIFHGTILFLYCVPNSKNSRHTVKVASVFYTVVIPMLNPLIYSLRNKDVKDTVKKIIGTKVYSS
As to the kind of experiment: Luciferase reporter assay (CRE Firefly:Renilla), mOREG constructs. The experiment is classed as cell-based. Particulars: Rho-mOREG, Lucy-mOREG and Lucy-Rho-mOREG, no RTP1S, eugenol 100-300 μM, P≦0.05, 300 μM vs 0 μM. On the procedure:
as §1
Statistical Analysis. One-way ANOVA analysis followed by the Student-Newman Keuls test was performed on the luciferase reporter assay to compare the doses of isovaleric acid (0.1-5 mM) or eugenol (100-300 μM) to the non-treated control (0 μM). As each condition was performed in triplicate, the analyses were done with an n=3, and P values≦0.05 were deemed significant. One-way ANOVE followed by Student-Newman Keuls was also used to analyze the surface expression data in FIG. 7. […]
As mOREG is one of the ORs that reach the cell surface under every condition tested, we expressed the OR with and without the Lucy and Rho tags and assessed its response to eugenol.

As to `CC(C)CC(=O)O` [isovaleric acid], the “OR activation (Firefly:Renilla ratio)” value is on record as “dose-dependent manner” at Olfr691 (Lucy-Rho-Olfr691 with and without RTP, P<0.007 vs 0 mM); “dose-dependent increase” on Olfr691 (Rho-Olfr691 co-expressed with RTP1S, P≦0.002 vs 0 mM); “not significantly activated at any concentration” at Olfr691 (Rho-Olfr691 without RTP1S).
For `C=CCc1ccc(O)c(OC)c1` [eugenol], at mOREG, the “OR activation (Firefly:Renilla ratio)” value is on record as “dose-dependent activation”.

These data come from patent US9783585B2, “Compositions and methods for increasing the expression and signalling of proteins on cell surfaces” (JOHNS HOPKINS UNIVERSITY, priority 2013, dated 2017).
